How the values were obtained:
[1] = biological target: T1, NUAK family SNF1-like kinase 1 (Homo sapiens) (UniProt O60285); conditions: at 10 µM
T1 sequence (whole entry): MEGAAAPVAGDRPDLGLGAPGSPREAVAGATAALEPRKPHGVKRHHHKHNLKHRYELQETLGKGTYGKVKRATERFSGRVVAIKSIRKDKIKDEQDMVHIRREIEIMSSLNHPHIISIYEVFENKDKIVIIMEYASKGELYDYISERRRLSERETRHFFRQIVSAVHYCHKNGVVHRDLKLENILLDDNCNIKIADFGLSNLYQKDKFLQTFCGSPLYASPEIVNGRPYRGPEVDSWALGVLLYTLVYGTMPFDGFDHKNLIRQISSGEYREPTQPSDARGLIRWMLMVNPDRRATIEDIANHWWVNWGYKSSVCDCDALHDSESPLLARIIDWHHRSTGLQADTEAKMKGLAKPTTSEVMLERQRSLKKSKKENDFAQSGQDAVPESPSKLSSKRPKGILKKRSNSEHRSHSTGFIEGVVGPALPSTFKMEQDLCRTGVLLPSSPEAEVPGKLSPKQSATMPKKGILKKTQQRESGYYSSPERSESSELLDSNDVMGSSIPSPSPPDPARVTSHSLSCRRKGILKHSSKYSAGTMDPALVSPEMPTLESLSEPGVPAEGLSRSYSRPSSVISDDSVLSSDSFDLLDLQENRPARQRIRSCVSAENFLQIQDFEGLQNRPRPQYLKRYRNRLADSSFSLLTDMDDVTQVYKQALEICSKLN

[2] = biological target: Tyrosine-protein kinase Yes (Homo sapiens) (UniProt P07947); assay: Selectivity interaction (KinomeScan (DiscoverX)) EUB0000229b YES1; conditions: at 10 µM
[3] = biological target: Tyrosine-protein kinase receptor UFO (Homo sapiens) (UniProt P30530); assay: Selectivity interaction (KinomeScan (DiscoverX)) EUB0000655a AXL; conditions: at 10 µM
[4] = biological target: Tyrosine-protein kinase Srms (Homo sapiens) (UniProt Q9H3Y6); assay: Selectivity interaction (KinomeScan (DiscoverX)) EUB0000655a SRMS; conditions: at 10 µM
[5] = biological target: PAS domain-containing serine/threonine-protein kinase (Homo sapiens) (UniProt Q96RG2); assay: Selectivity interaction (ProQinase) EUB0000171b PASK
[6] = biological target: LIM domain kinase 1 (Homo sapiens) (UniProt P53667); conditions: at 10 µM
[7] = biological target: T2, Tyrosine-protein kinase Mer (Homo sapiens) (UniProt Q12866); assay: Selectivity interaction (KinomeScan (DiscoverX)) EUB0000607a MERTK; conditions: at 10 µM
T2 sequence (whole entry): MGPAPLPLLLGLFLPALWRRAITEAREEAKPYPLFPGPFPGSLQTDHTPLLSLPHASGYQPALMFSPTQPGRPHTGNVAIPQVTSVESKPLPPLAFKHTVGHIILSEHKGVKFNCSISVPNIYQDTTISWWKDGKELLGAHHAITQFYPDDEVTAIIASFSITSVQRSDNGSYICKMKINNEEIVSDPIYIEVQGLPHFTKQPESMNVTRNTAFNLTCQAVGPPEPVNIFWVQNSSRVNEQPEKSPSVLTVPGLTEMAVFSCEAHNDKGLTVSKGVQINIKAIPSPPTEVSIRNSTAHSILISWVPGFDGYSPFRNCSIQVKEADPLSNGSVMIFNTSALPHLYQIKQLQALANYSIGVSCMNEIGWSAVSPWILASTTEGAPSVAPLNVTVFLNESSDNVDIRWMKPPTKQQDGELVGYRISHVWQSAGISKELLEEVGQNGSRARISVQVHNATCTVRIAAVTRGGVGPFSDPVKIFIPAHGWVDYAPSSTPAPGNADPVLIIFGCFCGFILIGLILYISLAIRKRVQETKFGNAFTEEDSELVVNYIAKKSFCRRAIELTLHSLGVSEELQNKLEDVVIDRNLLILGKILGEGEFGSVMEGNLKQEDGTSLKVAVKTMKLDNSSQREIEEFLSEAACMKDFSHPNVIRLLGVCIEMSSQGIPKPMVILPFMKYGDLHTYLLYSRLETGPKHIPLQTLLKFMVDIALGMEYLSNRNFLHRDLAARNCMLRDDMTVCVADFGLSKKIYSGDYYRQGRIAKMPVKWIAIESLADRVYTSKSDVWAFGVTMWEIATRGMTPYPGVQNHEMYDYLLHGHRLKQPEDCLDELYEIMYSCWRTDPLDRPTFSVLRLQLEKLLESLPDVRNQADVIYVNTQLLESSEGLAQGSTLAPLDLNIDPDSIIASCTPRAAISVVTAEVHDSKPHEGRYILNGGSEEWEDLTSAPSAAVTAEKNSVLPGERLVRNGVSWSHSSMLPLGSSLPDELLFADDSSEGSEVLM

[8] = biological target: Casein kinase II subunit alpha' (Homo sapiens) (UniProt P19784); assay: Selectivity interaction (Ambit KINOMEscan and KiNATiv profiling in Jurkat cells) EUB0000090b CSNK2A2; assay type: cell-based; conditions: at 1 µM
[9] = biological target: T3, Serine/threonine-protein kinase D2 (Homo sapiens) (UniProt Q9BZL6); assay: Selectivity interaction (ActivX KiNativ screen (ex vivo kinase selectivity in human PBMCs)) EUB0001619a PRKD2; assay type: cell-based; conditions: PBMC, at 1 µM
T3 sequence (whole entry): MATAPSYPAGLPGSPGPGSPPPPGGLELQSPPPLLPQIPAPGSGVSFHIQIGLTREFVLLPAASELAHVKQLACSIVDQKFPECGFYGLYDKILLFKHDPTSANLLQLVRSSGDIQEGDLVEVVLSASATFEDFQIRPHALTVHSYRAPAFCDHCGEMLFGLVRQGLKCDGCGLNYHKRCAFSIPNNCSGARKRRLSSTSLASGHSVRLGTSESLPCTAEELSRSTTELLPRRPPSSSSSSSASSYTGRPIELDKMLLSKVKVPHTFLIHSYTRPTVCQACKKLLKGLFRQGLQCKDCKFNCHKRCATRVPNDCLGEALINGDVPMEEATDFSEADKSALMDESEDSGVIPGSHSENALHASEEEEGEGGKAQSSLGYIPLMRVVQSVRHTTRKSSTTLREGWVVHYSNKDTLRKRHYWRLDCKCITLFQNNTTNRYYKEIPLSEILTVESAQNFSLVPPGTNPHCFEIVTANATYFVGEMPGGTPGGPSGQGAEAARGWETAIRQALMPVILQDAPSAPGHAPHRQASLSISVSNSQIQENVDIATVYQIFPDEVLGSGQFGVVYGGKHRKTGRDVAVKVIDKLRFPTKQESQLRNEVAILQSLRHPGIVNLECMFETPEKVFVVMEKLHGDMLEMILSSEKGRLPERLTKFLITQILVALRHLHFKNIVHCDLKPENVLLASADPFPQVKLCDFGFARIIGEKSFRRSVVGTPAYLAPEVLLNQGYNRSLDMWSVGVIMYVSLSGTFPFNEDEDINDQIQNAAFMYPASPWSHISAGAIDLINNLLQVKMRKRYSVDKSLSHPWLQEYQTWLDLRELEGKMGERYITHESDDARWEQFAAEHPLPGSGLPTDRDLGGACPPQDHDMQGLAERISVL

Sequence of PAS domain-containing serine/threonine-protein kinase (Homo sapiens) (Q96RG2 whole entry, the tested form may be a part): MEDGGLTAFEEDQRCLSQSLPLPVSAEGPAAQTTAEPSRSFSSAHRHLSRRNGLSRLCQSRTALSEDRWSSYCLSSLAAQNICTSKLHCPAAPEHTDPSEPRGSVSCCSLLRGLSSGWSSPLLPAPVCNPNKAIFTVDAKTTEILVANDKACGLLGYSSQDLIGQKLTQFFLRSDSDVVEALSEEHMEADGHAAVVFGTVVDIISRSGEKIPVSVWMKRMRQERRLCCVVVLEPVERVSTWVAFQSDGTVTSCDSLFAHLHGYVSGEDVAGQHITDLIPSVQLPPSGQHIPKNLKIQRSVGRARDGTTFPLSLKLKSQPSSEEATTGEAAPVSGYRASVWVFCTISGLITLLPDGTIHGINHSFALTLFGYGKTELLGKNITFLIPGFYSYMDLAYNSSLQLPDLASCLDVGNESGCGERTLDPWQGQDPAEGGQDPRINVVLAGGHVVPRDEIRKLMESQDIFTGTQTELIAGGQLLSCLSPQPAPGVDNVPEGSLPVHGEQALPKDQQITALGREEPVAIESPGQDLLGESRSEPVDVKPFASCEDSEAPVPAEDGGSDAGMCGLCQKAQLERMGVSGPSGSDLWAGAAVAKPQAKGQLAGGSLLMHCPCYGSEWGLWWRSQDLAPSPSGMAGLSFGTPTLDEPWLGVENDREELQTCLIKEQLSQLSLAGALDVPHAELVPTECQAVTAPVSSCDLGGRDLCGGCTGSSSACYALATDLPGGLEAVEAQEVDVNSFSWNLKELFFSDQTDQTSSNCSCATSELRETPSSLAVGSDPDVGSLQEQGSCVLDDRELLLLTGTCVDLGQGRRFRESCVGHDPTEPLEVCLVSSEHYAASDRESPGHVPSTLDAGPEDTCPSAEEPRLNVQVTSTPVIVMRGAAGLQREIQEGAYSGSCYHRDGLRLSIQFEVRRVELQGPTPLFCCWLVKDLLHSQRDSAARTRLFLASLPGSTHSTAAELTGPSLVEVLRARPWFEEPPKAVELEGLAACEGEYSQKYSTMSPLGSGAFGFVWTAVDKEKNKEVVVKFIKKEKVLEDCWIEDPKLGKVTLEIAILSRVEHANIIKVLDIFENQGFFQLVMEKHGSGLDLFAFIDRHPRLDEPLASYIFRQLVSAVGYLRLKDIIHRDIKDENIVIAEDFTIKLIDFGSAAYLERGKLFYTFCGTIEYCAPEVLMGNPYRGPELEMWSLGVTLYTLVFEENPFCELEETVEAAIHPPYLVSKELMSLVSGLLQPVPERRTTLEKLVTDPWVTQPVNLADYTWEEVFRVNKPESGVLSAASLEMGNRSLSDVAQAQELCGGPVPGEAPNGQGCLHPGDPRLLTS
Sequence of Tyrosine-protein kinase Srms (Homo sapiens) (Q9H3Y6 whole entry, the tested form may be a part): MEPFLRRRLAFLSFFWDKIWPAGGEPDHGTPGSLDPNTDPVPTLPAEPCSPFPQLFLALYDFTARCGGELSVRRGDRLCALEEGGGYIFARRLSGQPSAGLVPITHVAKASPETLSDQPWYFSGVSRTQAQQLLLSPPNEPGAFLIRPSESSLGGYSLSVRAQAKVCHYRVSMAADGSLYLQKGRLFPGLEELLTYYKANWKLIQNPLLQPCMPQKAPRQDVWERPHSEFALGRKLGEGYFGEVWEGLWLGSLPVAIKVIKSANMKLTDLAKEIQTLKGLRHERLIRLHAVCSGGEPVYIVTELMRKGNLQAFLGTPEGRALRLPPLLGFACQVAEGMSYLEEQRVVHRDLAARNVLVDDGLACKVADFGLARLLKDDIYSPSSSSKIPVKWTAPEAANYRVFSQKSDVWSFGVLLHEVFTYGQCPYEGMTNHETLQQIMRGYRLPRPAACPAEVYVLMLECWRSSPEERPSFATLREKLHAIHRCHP
Sequence of Tyrosine-protein kinase Yes (Homo sapiens) (P07947 2-543 limits assumed): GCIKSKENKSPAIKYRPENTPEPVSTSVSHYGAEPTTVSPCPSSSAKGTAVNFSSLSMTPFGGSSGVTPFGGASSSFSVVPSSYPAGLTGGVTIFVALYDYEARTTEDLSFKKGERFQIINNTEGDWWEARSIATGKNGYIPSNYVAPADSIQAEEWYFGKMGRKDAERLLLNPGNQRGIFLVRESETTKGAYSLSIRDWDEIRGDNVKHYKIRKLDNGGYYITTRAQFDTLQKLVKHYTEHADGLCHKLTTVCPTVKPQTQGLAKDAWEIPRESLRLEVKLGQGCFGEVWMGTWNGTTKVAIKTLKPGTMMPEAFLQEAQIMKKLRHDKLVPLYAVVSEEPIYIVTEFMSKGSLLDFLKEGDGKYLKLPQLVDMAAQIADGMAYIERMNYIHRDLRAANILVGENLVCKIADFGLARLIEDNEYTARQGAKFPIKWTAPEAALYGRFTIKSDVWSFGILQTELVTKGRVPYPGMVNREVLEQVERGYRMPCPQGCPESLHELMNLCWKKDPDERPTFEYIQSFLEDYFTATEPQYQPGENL
Sequence of Tyrosine-protein kinase receptor UFO (Homo sapiens) (P30530 whole entry): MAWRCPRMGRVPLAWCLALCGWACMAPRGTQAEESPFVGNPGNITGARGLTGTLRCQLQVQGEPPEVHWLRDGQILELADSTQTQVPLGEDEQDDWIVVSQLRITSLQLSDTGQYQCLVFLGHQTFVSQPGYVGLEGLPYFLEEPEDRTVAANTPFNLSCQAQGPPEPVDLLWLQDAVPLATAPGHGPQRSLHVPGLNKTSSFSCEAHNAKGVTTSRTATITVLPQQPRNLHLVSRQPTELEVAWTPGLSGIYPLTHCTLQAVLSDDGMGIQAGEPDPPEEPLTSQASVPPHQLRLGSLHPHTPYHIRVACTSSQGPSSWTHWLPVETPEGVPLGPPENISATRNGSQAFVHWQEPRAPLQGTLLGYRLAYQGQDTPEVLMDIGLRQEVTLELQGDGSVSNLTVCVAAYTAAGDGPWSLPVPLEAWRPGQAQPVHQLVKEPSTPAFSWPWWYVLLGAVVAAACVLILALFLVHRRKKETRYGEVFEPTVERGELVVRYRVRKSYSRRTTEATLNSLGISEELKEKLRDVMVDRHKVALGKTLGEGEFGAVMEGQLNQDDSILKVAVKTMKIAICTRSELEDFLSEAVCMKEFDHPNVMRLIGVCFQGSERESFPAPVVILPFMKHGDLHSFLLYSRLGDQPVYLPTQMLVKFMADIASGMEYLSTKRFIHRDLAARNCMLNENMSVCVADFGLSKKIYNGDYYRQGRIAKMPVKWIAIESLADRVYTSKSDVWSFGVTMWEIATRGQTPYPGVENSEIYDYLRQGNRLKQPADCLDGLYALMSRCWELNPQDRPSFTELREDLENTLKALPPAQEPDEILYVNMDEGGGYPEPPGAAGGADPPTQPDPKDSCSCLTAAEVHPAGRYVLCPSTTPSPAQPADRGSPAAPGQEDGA
Sequence of LIM domain kinase 1 (Homo sapiens) (P53667 whole entry, looked up, the tested form may be a part): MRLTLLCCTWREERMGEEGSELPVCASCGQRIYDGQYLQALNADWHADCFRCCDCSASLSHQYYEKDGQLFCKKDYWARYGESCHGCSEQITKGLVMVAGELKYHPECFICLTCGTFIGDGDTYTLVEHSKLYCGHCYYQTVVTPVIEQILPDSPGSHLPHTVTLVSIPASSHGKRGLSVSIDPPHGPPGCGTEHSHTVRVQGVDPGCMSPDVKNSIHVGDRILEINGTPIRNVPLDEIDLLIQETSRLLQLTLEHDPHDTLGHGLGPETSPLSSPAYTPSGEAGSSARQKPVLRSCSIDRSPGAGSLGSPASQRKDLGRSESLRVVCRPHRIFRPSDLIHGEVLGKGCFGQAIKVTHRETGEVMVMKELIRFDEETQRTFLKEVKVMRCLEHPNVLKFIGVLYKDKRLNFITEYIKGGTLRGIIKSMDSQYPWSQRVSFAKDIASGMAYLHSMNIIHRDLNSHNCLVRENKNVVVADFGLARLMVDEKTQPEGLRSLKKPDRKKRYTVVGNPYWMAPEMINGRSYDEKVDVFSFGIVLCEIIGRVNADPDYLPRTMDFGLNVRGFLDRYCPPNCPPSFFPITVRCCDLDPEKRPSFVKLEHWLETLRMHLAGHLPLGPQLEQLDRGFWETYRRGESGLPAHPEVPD
Sequence of Casein kinase II subunit alpha' (Homo sapiens) (P19784 whole entry, looked up): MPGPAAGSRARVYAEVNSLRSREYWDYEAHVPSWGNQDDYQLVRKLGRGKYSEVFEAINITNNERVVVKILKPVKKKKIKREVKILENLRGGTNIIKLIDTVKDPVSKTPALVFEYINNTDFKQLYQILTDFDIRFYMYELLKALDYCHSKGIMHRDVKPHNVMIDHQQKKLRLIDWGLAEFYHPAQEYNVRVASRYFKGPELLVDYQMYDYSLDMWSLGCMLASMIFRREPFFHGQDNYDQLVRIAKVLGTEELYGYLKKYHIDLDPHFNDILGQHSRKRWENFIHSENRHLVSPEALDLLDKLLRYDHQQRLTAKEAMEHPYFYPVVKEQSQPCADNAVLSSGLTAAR

`CCN(CC)CCCCNc1ncc2cc(-c3cc(OC)cc(OC)c3)c(NC(=O)NC(C)(C)C)nc2n1` gave a % of control [1] of 100%.

With `COc1cc(N(C)c2ccnc3ccc(C(F)(F)F)cc23)cc(OC)c1OC` the % binding [2] was 83%.

`CN(C)CCOc1ccc(-c2nc(-c3ccncc3)c(-c3ccc4c(c3)CC/C4=N\O)[nH]2)cc1` was tested, and the % of control [3] was 78% and the % of control [4] was 74%.

Compound `C=CC(=O)Nc1cccc(C(=O)Nc2ccc(Nc3cc(-c4[nH]c(SC)nc4C)ccn3)cc2)c1` has a % of control ([5]; at 1 µM) of 81% and a % of control ([5]; at 5 µM) of 55%.

With `Cc1cc([C@@H](C)Nc2ccccc2C(=O)O)c2nc(N3CCOCC3)cc(=O)n2c1` [AZD-6482] the % of control [6] was 100%.

For `CNC(=O)Nc1ccc(-c2nc(N3CC4CCC(C3)O4)c3cnn(C4CCC5(CC4)OCCO5)c3n2)cc1`, the % of control [7] was 87%.

`CN(C)C/C=C/C(=O)Nc1ccc(C(=O)N2CCCC(Nc3ncc(Cl)c(-c4c[nH]c5ccccc45)n3)C2)cc1` (stereo not given) gave a % of control [8] of 89%.

Compound `N#Cc1cccc(-c2c[nH]c3ncnc(N4CCOCC4)c23)c1` has a % of inhibition [9] of 9%.
